Reference: US7524487B2, “Compositions and methods for modulating interleukin-10” (University of Maryland, priority 2005, dated 2009)

Assays:
IL-10 promoter [1] = test: ChIP of histone H3 phosphorylation at the IL-10 promoter in stimulated BMMφ; type: cell-based, mice
Procedure: BMMφ were stimulated with medium (open bars), LPS (solid bars) or E-IgG+LPS (striped bars) for 15 minutes (A), or the indicated times (B) and ChIP assays were carried out as described in Materials and Methods. Immunoprecipitations utilized antibodies specific to phospho-H3 (left panel) or acetyl-H3 (right panel). A. conventional RT-PCR and B. real time PCR were carried out using IL-10 promoter or IL-12p40 promoter specific primers. For real time PCR, samples were normalized to input DNA controls.
Cells were pretreated with PD98059 (10 μM), SB203580 (1 μM) or medium for 30 min then stimulated with medium (open bar), IgG-OVA (dotted bar), LPS (solid bar), or both (striped bars) for 40 min. ChIP analysis was carried out using a phospho-H3 specific Ab. A. Conventional RT-PCR was carried out using IL-10 promoter or IL-12p40 promoter specific primers. B. Real time PCR analysis of samples obtained in A. Samples were normalized to input DNA controls.
(§1) FIG. 22 is a graph showing Inhibition of histone modifications by blocking ERK. BMMφ were pre-treated with PD98059 (15 μM) (solid bars) or drug vehicle (open bars) for 1 hour and then stimulated with IC plus LPS (10 ng/mL). Cross-linked chromatin fragments were immunoprecipitated with antibody to phosphorylated histone H3 at Ser 10 or antibody to Sp1. The DNA was purified and analyzed for the presence of IL-10 promoter sequences corresponding to nucleosome −2 by QRT-PCR. The data were plotted graphically as the percentage change relative to drug vehicle (IC/LPS) at 30 min post-stimulation for histone H3 phosphorylation, and at 45 min post-stimulation for Sp1 recruitment. One representative from two independent experiments is presented.
Chromatin immunoprecipitation (ChIP). ChIPs were carried out using the ChIP Assay kit following the manufacturer's protocol (Upstate USA, Inc., Lake Placid, N.Y.). Briefly, 1×10^6 BMMφ were plated overnight in 6-well plates. Cells were stimulated as described in Figure Legends then fixed for 10 min at 37° C. in paraformaldehyde (1% final concentration). […]

IL-10 promoter [2] = test: ChIP of Sp1 and STAT3 binding to the IL-10 promoter in situ in stimulated BMMφ; type: cell-based, mice
Procedure: BMMφ were stimulated with medium (open bar), E-IgG (dotted bar), LPS (solid bar), or LPS+E-IgG (striped bar) for 40 min. Some cells were pretreated with PD98059 (10 μM). Immunoprecipitations were carried out using either Sp1 or STAT3 specific Abs. A. Conventional RT-PCR was carried out using primers which amplify the putative Sp1 or STAT3 binding sites of the IL-10 promoter respectively. B. Real time PCR analysis of samples obtained in A. Samples were normalized to input DNA controls.
as §1
Chromatin immunoprecipitation (ChIP). ChIPs were carried out using the ChIP Assay kit following the manufacturer's protocol (Upstate USA, Inc., Lake Placid, N.Y.). […]

Sp1 recruitment to IL-10 promoter nucleosome −2 (ChIP, QRT-PCR) (IL-10 promoter [2]; BMMφ pre-treated with PD98059 15 μM for 1 hour, IC plus LPS 10 ng/mL, 45 min post-stimulation, relative to drug vehicle): dramatically reduced | Sp1 and STAT3 transcription factor binding to the IL-10 promoter in situ (ChIP) (IL-10 promoter [2]; BMMφ pretreated with PD98059 10 μM, LPS + E-IgG for 40 min): reversed
SMILES: COc1cccc(-c2cc(=O)c3ccccc3o2)c1N [PD98059]
histone H3 Ser 10 phosphorylation at IL-10 promoter nucleosome −2 (ChIP, QRT-PCR) (IL-10 promoter [1]; BMMφ pre-treated with PD98059 15 μM for 1 hour, IC plus LPS 10 ng/mL, 30 min post-stimulation, relative to drug vehicle): substantial loss | histone H3 phosphorylation at the IL-10 promoter induced by immune complex (ChIP) (IL-10 promoter [1]; BMMφ pretreated 30 min with PD98059 10 μM or SB203580 1 μM, then IgG-OVA + LPS for 40 min): completely abrogated
